# Values quoted from earlier work in PubChem BioAssay AID1259409 (Chemical Carcinogenesis Research Information System (CCRIS), 2018).
# Tested on: rodent chemically induced tumor inhibition, incidence and multiplicity
# Experiment: CCRIS tumor inhibitor studies
smiles,measurement,setting,value
Cc1cc(C(C)(C)C)c(O)c(C(C)(C)C)c1,"tumour outcome (control, treated, inhibition, significance)","Carcinogen: 7,12-DIMETHYLBENZ[A]ANTHRACENE, 57-97-6, Dose [Inhibitor]: 200 MG ML 1 ML IN OLIVE OIL ONCE (STUDY DURATION: 18 WK), Route [Inhibitor]: GAVAGE, Species: RAT, Strain/Sex: SPRAGUE-DAWLEY/FEMALE, Target Tissue: Type of Lesion: MAMMARY GLAND: TUMOR, Dose [Carcinogen]: 12 MG IN 1 ML OLIVE OIL ADMINISTERED 1 HR AFTER INHIBITOR, Promoter: NONE USED","27/34 (79%), 5/18 (28%), 64%, p<0.01"
same,"tumour outcome (control, treated, inhibition, significance)","Carcinogen: 7,12-DIMETHYLBENZ[A]ANTHRACENE, 57-97-6, Dose [Inhibitor]: 1000 UG APPLIED 6 HR BEFORE, 5 MIN BEFORE, AND 6 HR AFTER DMBA (STUDY DURATION: 28 WK), Route [Inhibitor]: DERMAL, Species: MOUSE, Strain/Sex: CD-1/FEMALE, Target Tissue: Type of Lesion: SKIN: PAPILLOMA, Dose [Carcinogen]: 2.56 UG APPLIED ONCE 5 MIN AFTER INHIBITOR, Promoter: 12-O-TETRADECANOYLPHORBOL-13-ACETATE, 16561-29-8","(82%, 35%, 57%, not calculated"
same,"tumour outcome (control, treated, inhibition, significance)","Carcinogen: 7,12-DIMETHYLBENZ[A]ANTHRACENE, 57-97-6, Dose [Inhibitor]: 1000 UG APPLIED ONCE 5 MIN BEFORE DMBA (STUDY DURATION 28 WK), Route [Inhibitor]: DERMAL, Species: MOUSE, Strain/Sex: CD-1/FEMALE, Target Tissue: Type of Lesion: SKIN: PAPILLOMA, Dose [Carcinogen]: 2.56 UG APPLIED ONCE 5 MIN AFTER INHIBITOR, Promoter: 12-O-TETRADECANOYLPHORBOL-13-ACETATE, 16561-29-8","82%, 57%, 30%, not calculated"
same,"tumour outcome (control, treated, inhibition, significance)","Carcinogen: 7,12-DIMETHYLBENZ[A]ANTHRACENE, 57-97-6, Dose [Inhibitor]: 2500 MG/KG IN DIET STARTING 2 WK BEFORE UNTIL 1 WK AFTER CARCINOGEN ADMINISTRATION (STUDY DURATION: 32 WK), Route [Inhibitor]: ORAL, Species: RAT, Strain/Sex: SPRAGUE-DAWLEY/FEMALE, Target Tissue: Type of Lesion: MAMMARY GLAND: TUMOR, Dose [Carcinogen]: 8 MG IN 1 ML SESAME OIL ADMINISTERED ONCE, Promoter: NONE USED","88%, 68%, 23%, not significant"
same,"tumour outcome (control, treated, inhibition, significance)","Carcinogen: BENZO[A]PYRENE, 50-32-8, Dose [Inhibitor]: 5 MG/G DIET IN SESAME OIL (4%) 3/WK FOR 28 D SIMULTANEOUSLY WITH CARCINOGEN (STUDY DURATION: 21 WK), Route [Inhibitor]: ORAL, Species: MOUSE, Strain/Sex: A/HEJ/FEMALE, Target Tissue: Type of Lesion: FORESTOMACH: TUMOR, Dose [Carcinogen]: 1 MG/G DIET IN 4% SESAME OIL IN DIET 3/WK FOR 28 D, Promoter: NONE USED","12/12 (100%), 2/9 (22%), 78%, p<0.001"
same,"tumour outcome (control, treated, inhibition, significance)","Carcinogen: BENZO[A]PYRENE, 50-32-8, Dose [Inhibitor]: 10 MG/G DIET 3/WK FOR 28 D SIMULTANEOUSLY WITH CARCINOGEN (STUDY DURATION: 28 WK), Route [Inhibitor]: ORAL, Species: MOUSE, Strain/Sex: ICR/FEMALE, Target Tissue: Type of Lesion: FORESTOMACH: TUMOR, Dose [Carcinogen]: 0.3 MG/G DIET 3/WK FOR 28 D, Promoter: NONE USED","13/19 (68%), 10/20 (50%), 26%, not significant"
same,"tumour outcome (control, treated, inhibition, significance)","Carcinogen: DIETHYLNITROSAMINE, 55-18-5, Dose [Inhibitor]: 0, 50 MG/KG IN CORN OIL FOR DURATION OF STUDY BEGINNING 7 D PRIOR TO FIRST CARCINOGEN DOSE (STUDY DURATION: 6 MO), Route [Inhibitor]: GAVAGE, Species: RAT, Strain/Sex: BD6/FEMALE, Target Tissue: Type of Lesion: ESOPHAGUS: TUMOR, Dose [Carcinogen]: 80 MG/KG BW 1/WK FOR 6 WK, Promoter: NONE USED","14%, 0%, 100%, not significant"
same,"tumour outcome (control, treated, inhibition, significance)","Carcinogen: DIETHYLNITROSAMINE, 55-18-5, Dose [Inhibitor]: 0, 50 MG/KG IN CORN OIL FOR DURATION OF STUDY BEGINNING 7 D PRIOR TO FIRST CARCINOGEN DOSE (STUDY DURATION: 6 MO), Route [Inhibitor]: GAVAGE, Species: RAT, Strain/Sex: BD6/FEMALE, Target Tissue: Type of Lesion: ESOPHAGUS: TUMOR, Dose [Carcinogen]: 80 MG/KG BW 1/WK FOR 8 WK, Promoter: NONE USED","20%, 4%, 80%, not significant"
same,"tumour outcome (control, treated, inhibition, significance)","Carcinogen: DIETHYLNITROSAMINE, 55-18-5, Dose [Inhibitor]: 0, 50 MG/KG IN CORN OIL FOR DURATION OF STUDY BEGINNING 7 D PRIOR TO FIRST CARCINOGEN DOSE (STUDY DURATION: 6 MO), Route [Inhibitor]: GAVAGE, Species: RAT, Strain/Sex: BD6/FEMALE, Target Tissue: Type of Lesion: LIVER: TUMOR, Dose [Carcinogen]: 80 MG/KG BW 1/WK FOR 6 WK, Promoter: NONE USED","52%, 23%, 56%, not significant"
same,"tumour outcome (control, treated, inhibition, significance)","Carcinogen: DIETHYLNITROSAMINE, 55-18-5, Dose [Inhibitor]: 0, 50 MG/KG IN CORN OIL FOR DURATION OF STUDY BEGINNING 7 D PRIOR TO FIRST CARCINOGEN DOSE (STUDY DURATION: 6 MO), Route [Inhibitor]: GAVAGE, Species: RAT, Strain/Sex: BD6/FEMALE, Target Tissue: Type of Lesion: LIVER: TUMOR, Dose [Carcinogen]: 80 MG/KG BW 1/WK FOR 8 WK, Promoter: NONE USED","83%, 72%, 13%, not significant"
same,"tumour outcome (control, treated, inhibition, significance)","Carcinogen: HYDRAZINE SULFATE, 10034-93-2, Dose [Inhibitor]: 5000 PPM IN DIET STARTING 1 WK PRIOR TO ADMINISTRATION OF CARCINOGEN UNTIL END OF EXPERIMENT (STUDY DURATION: APPROXIMAT, Route [Inhibitor]: ORAL, Species: MOUSE, Strain/Sex: SWISS/MALE, FEMALE, Target Tissue: Type of Lesion: LIVER AND LUNG: COMBINED TUMORS, Dose [Carcinogen]: 1.1 MG/D 5 D/WK UNTIL 12 MO OF AGE, Promoter: NONE USED","24/29 (83%), 19/28 (68%), 18%, not significant"
same,"tumour outcome (control, treated, inhibition, significance)","Carcinogen: ISONIAZID, 54-85-3, Dose [Inhibitor]: 5000 PPM IN DIET STARTING 1 WK PRIOR TO ADMINISTRATION OF CARCINOGEN UNTIL END OF EXPERIMENT (STUDY DURATION: APPROXIMAT, Route [Inhibitor]: ORAL, Species: MOUSE, Strain/Sex: SWISS/MALE, FEMALE, Target Tissue: Type of Lesion: LIVER AND LUNG: COMBINED TUMORS, Dose [Carcinogen]: 1.1 MG/D 5 D/WK UNTIL 25 M OF AGE, Promoter: NONE USED","16/29 (55%), 4/20 (20%), 64%, p<0.05"
same,"tumour outcome (control, treated, inhibition, significance)","Carcinogen: ISONIAZID, 54-85-3, Dose [Inhibitor]: 5000 PPM IN DIET STARTING 1 WK PRIOR TO ADMINISTRATION OF CARCINOGEN UNTIL END OF EXPERIMENT (STUDY DURATION: APPROXIMAT, Route [Inhibitor]: ORAL, Species: MOUSE, Strain/Sex: SWISS/MALE, FEMALE, Target Tissue: Type of Lesion: LIVER AND LUNG: COMBINED TUMORS, Dose [Carcinogen]: 1.1 MG/D 5 D/WK UNTIL 25 MO OF AGE, Promoter: NONE USED","16/29 (55%), 5/20 (25%), 54%, p<0.05"
same,"tumour outcome (control, treated, inhibition, significance)","Carcinogen: N-BIS(2-HYDROXYPROPYL)NITROSAMINE, 53609-64-6, Dose [Inhibitor]: 0, 1% IN DIET FOR 30 WK BEGINNING POST CARCINOGEN TREATMENT (STUDY DURATION: 32 WK), Route [Inhibitor]: ORAL, Species: RAT, Strain/Sex: F344/MALE, Target Tissue: Type of Lesion: BLADDER: ADENOMA, Dose [Carcinogen]: 0.1% IN DRINKING WATER FOR 2 WK, Promoter: NONE USED","5%, 0%, 100%, not calculated"
same,"tumour outcome (control, treated, inhibition, significance)","Carcinogen: N-BIS(2-HYDROXYPROPYL)NITROSAMINE, 53609-64-6, Dose [Inhibitor]: 0, 1% IN DIET FOR 30 WK BEGINNING POST CARCINOGEN TREATMENT (STUDY DURATION: 32 WK), Route [Inhibitor]: ORAL, Species: RAT, Strain/Sex: F344/MALE, Target Tissue: Type of Lesion: KIDNEY: TUMOR, Dose [Carcinogen]: 0.1% IN DRINKING WATER FOR 2 WK, Promoter: NONE USED","10%, 30%, -200%, not calculated"
